Laboratory results: patent US20230227769A1, “Means and Methods to Improve Yeast Fermentation Efficiency” (VIB VZW, priority 2020, published 2023)

system: 2G industrial yeast strains MD4 and T18; assay: Fermentations in lignocellulose hydrolysates spiked with a range of inhibitor concentrations; type: cell-based, S. cerevisiae; settings: five lignocellulose hydrolysates spiked with a range of inhibitor concentrations; both strains MD4 and T18
Method: The medium was spiked with different industrially relevant concentrations of (FIG. 1A, FIG. 1E) HMF, (FIG. 1B, FIG. 1F) furfural, (FIG. 1C, FIG. 1G) formic acid and (FIG. 1D, FIG. 1H) acetic acid.
As a first step in developing a yeast strain that can cope with the presence of fermentation inhibitors, the level of all relevant inhibitory compounds was measured in five different lignocellulose hydrolysates: two bagasse hydrolysates, two corn cob hydrolysates and one spruce hydrolysate (for composition see Table 2). Fermentations with two 2G industrial yeast strains, MD4 and T18, were performed using these hydrolysates spiked with a range of inhibitor concentrations.
After preculture of the yeast strains for 48 h at 30° C. with shaking at 200 rpm in YPD2% (10 g/l yeast extract, 20 g/l bacteriological peptone, 2% D-glucose) up to stationary phase, small-scale (10 ml) semi-anaerobic fermentations with MD4 and T18 were performed at pH 5.2, 35° C., shaking at 350 rpm, and a yeast inoculum OD 5.0. Weight loss of the fermentation tubes, which is correlated with CO2 production during conversion of glucose and xylose into ethanol, was measured continuously, or sampling at different timepoints was performed to analyse sugar and inhibitor concentrations by HPLC.

| Compound | inhibitory effect on fermentation |
| --- | --- |
| O=Cc1ccc(O)cc1 [4-hydroxybenzaldehyde] | smaller inhibitory effect |
| O=C(O)c1ccc(O)cc1 [4-hydroxybenzoic acid] | smaller inhibitory effect |
| O=Cc1ccc(CO)o1 [HMF, 5-(hydroxymethyl)furfural] | major inhibitors |
| CC(=O)CCC(=O)O [Levulinic acid] | smaller inhibitory effect |
| CC(=O)O [acetic acid] | major inhibitors |
| O=CO [formic acid] | major inhibitors |
| O=Cc1ccco1 [furfural] | major inhibitors |
| COc1cc(C=O)ccc1O [vanillin] | smaller inhibitory effect |
